± gives the standard deviation of the averaged measurements.
How the values were obtained:
Assay in all cases: level (log10 ratio to DMSO vehicle control); higher = higher biomarker level / cell amount than vehicle control
Heptafluorobutyl iodide = compound: FC(F)(F)C(F)(F)C(F)(F)CI [Heptafluorobutyl iodide]; conditions: in DMSO
Experimental: (§1)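 BioMAP Diversity Plus panel of 12 human primary cell co-culture systems (3C, 4H, LPS, SAg, BT, BF4T, BE3C, CASM3C, HDF3CGF, KF3CT, MyoF, Mphg). Compounds were added 1 h before stimulation and left for 24 h (MyoF 48 h; BT 72 h for soluble read-outs or 6 d for IgG). Biomarkers were read by ELISA, cytotoxicity by SRB, PBMC viability and proliferation by Alamar Blue. Each well value was divided by the mean of 8 DMSO control wells on the same plate and log10 transformed; duplicate blinded samples were tested at 4 concentrations.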

[1] = compound: O=S(=O)(O)C(F)(F)C(F)(F)C(F)(F)C(F)(F)C(F)(F)C(F)(F)C(F)(F)C(F)(F)C(F)(F)C(F)(F)F [Sodium perfluorodecanesulfonate]; conditions: in DMSO
Experimental: as §1

Octafluoroadipamide = compound: NC(=O)C(F)(F)C(F)(F)C(F)(F)C(F)(F)C(N)=O [Octafluoroadipamide]; conditions: in DMSO
Experimental: as §1

[2] = compound: O=S(=O)(O)CCC(F)(F)C(F)(F)C(F)(F)C(F)(F)C(F)(F)C(F)(F)F [6:2 Fluorotelomer sulfonic acid]; conditions: in DMSO
Experimental: as §1

[3] = compound: COC(=O)C(F)(F)C(F)(F)OC(F)(C(F)(F)F)C(F)(F)OC(F)=C(F)F [Methyl perfluoro(3-(1-ethenyloxypropan-2-yloxy)propanoate)]; conditions: in DMSO
Experimental: as §1

[4] = compound: NC(=O)C(F)(F)C(F)(F)C(F)(F)C(F)F; conditions: in DMSO
Experimental: as §1

[5] = compound: C=CC(=O)OCC(F)(F)C(F)(F)C(F)(F)COC(=O)C=C [1H,1H,5H,5H-Perfluoro-1,5-pentanediol diacrylate]; conditions: 6700 nM; in DMSO
Experimental: as §1

[6] = compound: NS(=O)(=O)C(F)(F)C(F)(F)C(F)(F)C(F)(F)C(F)(F)C(F)(F)F [Perfluorohexanesulfonamide]; conditions: in DMSO
Experimental: as §1

[7] = compound: O=C(O)C=CC(F)(C(F)(F)F)C(F)(F)F [3-(Perfluoroisopropyl)-2-propenoic acid]; conditions: in DMSO
Experimental: as §1

Hexafluoroamylene glycol = compound: OCC(F)(F)C(F)(F)C(F)(F)CO [Hexafluoroamylene glycol]; conditions: in DMSO
Experimental: as §1

[8] = compound: FC(F)(F)C(F)(F)C(F)(F)C(F)(F)C(F)(F)C(F)(F)CC1CO1 [3-(Perfluorohexyl)-1,2-epoxypropane]; conditions: in DMSO
Experimental: as §1

[9] = compound: O=S(=O)(Cl)C(F)(F)C(F)(F)C(F)(F)C(F)(F)C(F)(F)C(F)(F)C(F)(F)C(F)(F)F [Perfluoro-1-octanesulfonyl chloride]; conditions: in DMSO
Experimental: as §1

[10] = compound: FC(F)(F)C(F)(F)C(F)(F)CC1CO1 [1H,1H-Heptafluorobutyl epoxide]; conditions: in DMSO
Experimental: as §1

[11] = compound: C=C(C)C(=O)OCCC(F)(F)C(F)(F)C(F)(F)C(F)(F)C(F)(F)C(F)(F)F [6:2 Fluorotelomer methacrylate]; conditions: in DMSO
Experimental: as §1

[12] = compound: FC(F)(F)C(F)(F)CNCC(F)(F)C(F)(F)F [Bis(1H,1H-perfluoropropyl)amine]; conditions: in DMSO
Experimental: as §1

Nonafluoropentanamide = compound: NC(=O)C(F)(F)C(F)(F)C(F)(F)C(F)(F)F [Nonafluoropentanamide]; conditions: in DMSO
Experimental: as §1

[13] = compound: O=C(O)C(F)(F)C(F)(F)C(F)(F)C(F)(F)C(F)(F)C(F)(F)C(F)(F)C(F)(F)C(F)(F)C(F)F [11-H-Perfluoroundecanoic acid]; conditions: in DMSO
Experimental: as §1

[14] = compound: O=S(=O)(F)C(F)(F)C(F)(F)C(F)(F)C(F)(F)C(F)(F)C(F)(F)C(F)(F)C(F)(F)F [Perfluorooctanesulfonyl fluoride]; conditions: in DMSO
Experimental: as §1

[15] = compound: FC(F)(F)C(F)(F)C(F)(F)C(F)(F)C(F)(F)C(F)(F)C(F)(F)I [1-Iodopentadecafluoroheptane]; conditions: in DMSO
Experimental: as §1

## CASM3C:Proliferation
Heptafluorobutyl iodide; 6700 nM
  level (log10): -0.008 ± 0.0085
Heptafluorobutyl iodide; 20000 nM
  level (log10): 0.0235 ± 0.018
Heptafluorobutyl iodide; 60000 nM
  level (log10): 0.008 ± 0.024
[1]; 1500 nM
  level (log10): 0.017 ± 0.0057
[1]; 4400 nM
  level (log10): 0.0585 ± 0.061
[1]; 13000 nM
  level (log10): -0.006 ± 0.059
[1]; 40000 nM
  level (log10): 0.0275 ± 0.03
Octafluoroadipamide; 6700 nM
  level (log10): -0.029 ± 0.023
Octafluoroadipamide; 20000 nM
  level (log10): -0.0165 ± 0.05
Octafluoroadipamide; 60000 nM
  level (log10): -0.037 ± 0.051
[2]; 6700 nM
  level (log10): -0.0095 ± 0.029
[2]; 20000 nM
  level (log10): 0.024 ± 0.033
[2]; 60000 nM
  level (log10): 0.026 ± 0.018
[3]; 6700 nM
  level (log10): -0.012 ± 0.065
[3]; 20000 nM
  level (log10): 0.036 ± 0.05
[4]; 6700 nM
  level (log10): 0.002 ± 0.071
[4]; 20000 nM
  level (log10): -0.0145 ± 0.023
[4]; 60000 nM
  level (log10): 0.014 ± 0.025
[5]
  level (log10): -0.289 ± 0.086
[6]; 6700 nM
  level (log10): 0.0015 ± 0.013
[6]; 20000 nM
  level (log10): 0.0285 ± 0.03
[6]; 60000 nM
  level (log10): 0.0255 ± 0.018
[7]; 6700 nM
  level (log10): 0.0035 ± 0.019
[7]; 20000 nM
  level (log10): -0.009 ± 0.0085
[7]; 60000 nM
  level (log10): 0.009 ± 0.059
Hexafluoroamylene glycol; 6700 nM
  level (log10): -0.0005 ± 0.0021
Hexafluoroamylene glycol; 20000 nM
  level (log10): -0.0235 ± 0.0092
Hexafluoroamylene glycol; 60000 nM
  level (log10): 0.007 ± 0.0014
[8]; 6700 nM
  level (log10): 0.001 ± 0.021
[8]; 20000 nM
  level (log10): -0.0035 ± 0.005
[8]; 60000 nM
  level (log10): 0.027 ± 0.027
[9]; 6700 nM
  level (log10): -0.011 ± 0.078
[9]; 20000 nM
  level (log10): 0.007 ± 0.031
[9]; 60000 nM
  level (log10): -0.009 ± 0.011
[10]; 6700 nM
  level (log10): -0.0175 ± 0.021
[10]; 20000 nM
  level (log10): -0.046 ± 0.05
[10]; 60000 nM
  level (log10): -0.026 ± 0.064
[11]; 6700 nM
  level (log10): -0.0395 ± 0.046
[11]; 20000 nM
  level (log10): -0.042 ± 0.031
[11]; 60000 nM
  level (log10): 0.0115 ± 0.0092
[12]; 6700 nM
  level (log10): -0.115 ± 0.024
[12]; 20000 nM
  level (log10): 0.0135 ± 0.037
[12]; 60000 nM
  level (log10): -0.0005 ± 0.076
Nonafluoropentanamide; 6700 nM
  level (log10): -0.032 ± 0.058
Nonafluoropentanamide; 20000 nM
  level (log10): -0.017 ± 0.03
Nonafluoropentanamide; 60000 nM
  level (log10): -0.0505 ± 0.035
[13]; 6700 nM
  level (log10): -0.0495 ± 0.015
[13]; 20000 nM
  level (log10): 0.0005 ± 0.043
[14]; 6700 nM
  level (log10): -0.0125 ± 0.044
[14]; 20000 nM
  level (log10): -0.0265 ± 0.032
[14]; 60000 nM
  level (log10): 0.0095 ± 0.0064
[15]; 6700 nM
  level (log10): -0.003 ± 0.027
[15]; 20000 nM
  level (log10): -0.045 ± 0.0042

Source: the supplement of paper PMC10331698
